From patent US20250084095A1, “Aminopyrimidine Derivatives as Cyclin-Dependent Kinase Inhibitors” (Accutar Biotechnology Inc., priority 2023, published 2025)

How the values were obtained:
22RV1 cells = assay: Cell growth inhibition of 22RV1 cells (CellTiter-Glo); type: cell-based; details: Homo sapiens, 22Rv1, 120 h, 5 days, CellTiter-Glo, read-out: 22RV1 Cell Growh GI50
How it was run: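 22RV1 cells were plated in RPMI1640 with FBS (20% in one version, 10% in the other) and dosed next day at various concentrations from DMSO stocks. After 5 days at 37 °C, viability was measured by CellTiter-Glo luminescence.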

[1] = system: Phospho-Rb (Ser807/811) in MCF7 cells; assay: Phospho-Rb expression inhibition in MCF7 cells quantified by in cell Western; type: cell-based, human; details: Homo sapiens, MCF7, 24 h, 24 hours, in cell Western, read-out: MCF7 pRb IC50
How it was run: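 MCF7 cells were seeded at 20,000/well, grown overnight, then treated 24 h at 37 °C with compound dilutions (0.1% DMSO from 1000× stocks). Fixed cells were co-stained for phospho-Rb Ser807/811 and total Rb. Near-infrared dual-channel in-cell Western imaging was the read-out.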

Row | Compound | GI50 (22RV1 cells) [nM] | IC50 [1] [nM]
1 | CC(C)n1c(C(C)(C)C(F)F)nc2c(F)cc(-c3nc(N[C@@H]4C[C@H]5CO[C@H](O5)[C@H]4O)ncc3Cl)cc21 [Compound 169, (1S,3R,4S,5R)-3-((5-chloro-4-(2-(1,1-difluoro-2-methylpropan-2-yl)-4-fluoro-1-isopropyl-1H-benzo[d]imidazol-6-yl)pyrimidin-2-yl)amino)-6,8-dioxabicyclo[3.2.1]octan-4-ol] | ≤ 120 | 40 to 150
2 | CC(C)n1c(-c2cn[nH]c2)nc2c(F)cc(-c3nc(N[C@@H]4C[C@H]5CO[C@H](O5)[C@H]4O)ncc3Cl)cc21 [Compound 186, (1S,3R,4S,5R)-3-((5-chloro-4-(4-fluoro-1-isopropyl-2-(1H-pyrazol-4-yl)-1H-benzo[d]imidazol-6-yl)pyrimidin-2-yl)amino)-6,8-dioxabicyclo[3.2.1]octan-4-ol] | 120 to 450 | 150 to 1000
3 | Cc1c(-c2nc(N[C@@H]3C[C@H]4CO[C@H](O4)[C@H]3O)ncc2Cl)sc2c(C(C)C)cn(C(F)F)c(=O)c12 [Compound 231, 2-(5-chloro-2-(((1S,3R,4S,5R)-4-hydroxy-6,8-dioxabicyclo[3.2.1]octan-3-yl)amino)pyrimidin-4-yl)-5-(difluoromethyl)-7-isopropyl-3-methylthieno[3,2-c]pyridin-4(5H)-one] | 450 to 3000 | 40 to 150
4 | Cc1c(CN2CCC[C@@H](O)C2)n(C(C)C)c2cc(-c3nc(N[C@@H]4C[C@H]5CO[C@H](O5)[C@H]4O)ncc3F)ccc2c1=O [Compound 291, 7-(5-fluoro-2-(((1S,3R,4S,5R)-4-hydroxy-6,8-dioxabicyclo[3.2.1]octan-3-yl)amino)pyrimidin-4-yl)-2-(((R)-3-hydroxypiperidin-1-yl)methyl)-1-isopropyl-3-methylquinolin-4(1H)-one] | 120 to 450 | 150 to 1000
5 | CC(C)n1c([C@@H]2COC(=O)N2C)nc2c(F)cc(-c3nc(N[C@@H]4C[C@H]5CO[C@H](O5)[C@H]4O)ncc3Cl)cc21 [Compound 185, (R)-4-(6-(5-chloro-2-(((1S,3R,4S,5R)-4-hydroxy-6,8-dioxabicyclo[3.2.1]octan-3-yl)amino)pyrimidin-4-yl)-4-fluoro-1-isopropyl-1H-benzo[d]imidazol-2-yl)-3-methyloxazolidin-2-one] | 450 to 3000 | 150 to 1000
6 | CC(C)n1c(C(C)(C)N2CC(F)(F)C2)nc2c(F)cc(-c3nc(N[C@@H]4C[C@H]5CO[C@H](O5)[C@H]4O)ncc3Cl)cc21 [Compound 222, (1S,3R,4S,5R)-3-((5-chloro-4-(2-(2-(3,3-difluoroazetidin-1-yl)propan-2-yl)-4-fluoro-1-isopropyl-1H-benzo[d]imidazol-6-yl)pyrimidin-2-yl)amino)-6,8-dioxabicyclo[3.2.1]octan-4-ol] | 450 to 3000 | 150 to 1000
7 | CC(C)[C@H]1COC(=O)N1c1nc2c(F)cc(-c3nc(N[C@@H]4C[C@H]5CO[C@H](O5)[C@H]4O)ncc3Cl)cc2n1C(C)C [Compound 297, (S)-3-(6-(5-chloro-2-(((1S,3R,4S,5R)-4-hydroxy-6,8-dioxabicyclo[3.2.1]octan-3-yl)amino)pyrimidin-4-yl)-4-fluoro-1-isopropyl-1H-benzo[d]imidazol-2-yl)-4-isopropyloxazolidin-2-one] | 450 to 3000 | 150 to 1000
8 | CC(C)n1c([C@H]2CCOC2)nc2c(F)cc(-c3nc(N[C@@H]4C[C@H]5CO[C@H](O5)[C@H]4O)ncc3Cl)cc21 [Compound 267, (1S,3R,4S,5R)-3-((5-chloro-4-(4-fluoro-1-isopropyl-2-((R)-tetrahydrofuran-3-yl)-1H-benzo[d]imidazol-6-yl)pyrimidin-2-yl)amino)-6,8-dioxabicyclo[3.2.1]octan-4-ol] | 120 to 450 | 40 to 150
9 | CC(C)n1c(C2(F)COC2)nc2c(F)cc(-c3nc(N[C@@H]4C[C@H]5CO[C@H](O5)[C@H]4O)ncc3Cl)cc21 [Compound 170, (1S,3R,4S,5R)-3-((5-chloro-4-(4-fluoro-2-(3-fluorooxetan-3-yl)-1-isopropyl-1H-benzo[d]imidazol-6-yl)pyrimidin-2-yl)amino)-6,8-dioxabicyclo[3.2.1]octan-4-ol] | 450 to 3000 | 40 to 150
10 | Cc1c(C(F)F)c(=O)c2ccc(-c3nc(N[C@@H]4C[C@H]5CO[C@H](O5)[C@H]4O)ncc3F)cc2n1C(C)C [Compound 192, 3-(difluoromethyl)-7-(5-fluoro-2-(((1S,3R,4S,5R)-4-hydroxy-6,8-dioxabicyclo[3.2.1]octan-3-yl)amino)pyrimidin-4-yl)-1-isopropyl-2-methylquinolin-4(1H)-one] | 120 to 450 | 150 to 1000
11 | CC(C)(O)c1cnc2c(Cl)cc(-c3nc(N[C@@H]4C[C@H]5CO[C@H](O5)[C@H]4O)ncc3F)cc2c1Cl [Compound 285, (1S,3R,4S,5R)-3-((4-(4,8-dichloro-3-(2-hydroxypropan-2-yl)quinolin-6-yl)-5-fluoropyrimidin-2-yl)amino)-6,8-dioxabicyclo[3.2.1]octan-4-ol] | ≤ 120 | ≤ 40
12 | CC(C)(O)c1nc2c(F)cc(-c3nc(N[C@@H]4C[C@H]5CO[C@H](O5)[C@H]4O)ncc3Cl)cc2n1C1(CF)CC1 [Compound 167, (1S,3R,4S,5R)-3-((5-chloro-4-(4-fluoro-1-(1-(fluoromethyl)cyclopropyl)-2-(2-hydroxypropan-2-yl)-1H-benzo[d]imidazol-6-yl)pyrimidin-2-yl)amino)-6,8-dioxabicyclo[3.2.1]octan-4-ol] | ≤ 120 | 40 to 150
13 | CC(C)n1c(-c2ccccc2)nc2c(F)cc(-c3nc(N[C@@H]4C[C@H]5CO[C@H](O5)[C@H]4O)ncc3Cl)cc21 [Compound 163, (1S,3R,4S,5R)-3-((5-chloro-4-(4-fluoro-1-isopropyl-2-phenyl-1H-benzo[d]imidazol-6-yl)pyrimidin-2-yl)amino)-6,8-dioxabicyclo[3.2.1]octan-4-ol] | 120 to 450 | 40 to 150
14 | Cc1c(C)n(C(C)C)c2cc(-c3nc(N[C@@H]4C[C@H]5CO[C@H](O5)[C@H]4O)ncc3F)ccc2c1=O [Compound 190, 7-(5-fluoro-2-(((1S,3R,4S,5R)-4-hydroxy-6,8-dioxabicyclo[3.2.1]octan-3-yl)amino)pyrimidin-4-yl)-1-isopropyl-2,3-dimethylquinolin-4(1H)-one] | 120 to 450 | 40 to 150
15 | CC1OCC(C)n2c1nc1c(F)cc(-c3nc(N[C@@H]4C[C@H]5CO[C@H](O5)[C@H]4O)ncc3Cl)cc12 (stereo partly drawn) [Compound 49, (1S,3R,4S,5R)-3-((5-chloro-4-(9-fluoro-1,4-dimethyl-3,4-dihydro-1H-benzo[4,5]imidazo[2,1-c][1,4]oxazin-7-yl)pyrimidin-2-yl)amino)-6,8-dioxabicyclo[3.2.1]octan-4-ol] | 120 to 450 | 40 to 150
16 | Cc1c(-c2nc(N[C@@H]3C[C@H]4CO[C@H](O4)[C@H]3O)ncc2F)sc2c(C)c(C(C)(C)O)cnc12 [Compound 278, (1S,3R,4S,5R)-3-((5-fluoro-4-(6-(2-hydroxypropan-2-yl)-3,7-dimethylthieno[3,2-b]pyridin-2-yl)pyrimidin-2-yl)amino)-6,8-dioxabicyclo[3.2.1]octan-4-ol] | ≤ 120 | ≤ 40
17 | C[C@H]1COc2c(-c3nc(N[C@@H]4C[C@H]5CO[C@H](O5)[C@H]4O)ncc3Cl)cc(F)c3c2N1CCO3 [Compound 174, (1S,3R,4S,5R)-3-((5-chloro-4-((S)-9-fluoro-4-methyl-2,3,4,5-tetrahydro-1,6-dioxa-3a-azaphenalen-7-yl)pyrimidin-2-yl)amino)-6,8-dioxabicyclo[3.2.1]octan-4-ol] | 120 to 450 | 40 to 150
18 | CC(C)c1c(C(C)(C)O)cnc2c(F)cc(-c3nc(N[C@@H]4C[C@H]5CO[C@H](O5)[C@H]4O)ncc3Cl)cc12 [Compound 250, (1S,3R,4S,5R)-3-((5-chloro-4-(8-fluoro-3-(2-hydroxypropan-2-yl)-4-isopropylquinolin-6-yl)pyrimidin-2-yl)amino)-6,8-dioxabicyclo[3.2.1]octan-4-ol] | ≤ 120 | ≤ 40
19 | CCCc1cn(C)c(=O)c2ccc(-c3nc(N[C@@H]4C[C@H]5CO[C@H](O5)[C@H]4O)ncc3Cl)cc12 [Compound 294, 6-(5-chloro-2-(((1S,3R,4S,5R)-4-hydroxy-6,8-dioxabicyclo[3.2.1]octan-3-yl)amino)pyrimidin-4-yl)-2-methyl-4-propylisoquinolin-1(2H)-one] | 450 to 3000 | 150 to 1000
20 | Cc1c(CN2C[C@H](C)OC2=O)n(C(C)C)c2cc(-c3nc(N[C@@H]4C[C@H]5CO[C@H](O5)[C@H]4O)ncc3F)ccc2c1=O [Compound 212, (S)-3-((7-(5-fluoro-2-(((1S,3R,4S,5R)-4-hydroxy-6,8-dioxabicyclo[3.2.1]octan-3-yl)amino)pyrimidin-4-yl)-1-isopropyl-3-methyl-4-oxo-1,4-dihydroquinolin-2-yl)methyl)-5-methyloxazolidin-2-one] | > 3000 | 150 to 1000
21 | CC(C)(O)c1cc2cc(-c3nc(N[C@@H]4C[C@H]5CO[C@H](O5)[C@H]4O)ncc3Cl)cc(F)c2nn1 [Compound 258, (1S,3R,4S,5R)-3-((5-chloro-4-(8-fluoro-3-(2-hydroxypropan-2-yl)cinnolin-6-yl)pyrimidin-2-yl)amino)-6,8-dioxabicyclo[3.2.1]octan-4-ol] | > 3000 | > 1000
22 | Cc1c(CN)n(C(C)C)c2cc(-c3nc(N[C@@H]4C[C@H]5CO[C@H](O5)[C@H]4O)ncc3F)ccc2c1=O [Compound 193, 2-(aminomethyl)-7-(5-fluoro-2-(((1S,3R,4S,5R)-4-hydroxy-6,8-dioxabicyclo[3.2.1]octan-3-yl)amino)pyrimidin-4-yl)-1-isopropyl-3-methylquinolin-4(1H)-one] | 120 to 450 | 150 to 1000
